Numbers after ± are expanded uncertainties.
How the values were obtained:
[1] = Molar enthalpy of transition or fusion; settings: Crystal; DSC
[2] = Crystal; for vapor or sublimation pressure: Transpiration method; for Normal melting temperature: DTA

CC(=O)c1ccc(NC2=NCCC3(CCCCC3)S2)cc1
Settings	Molar enthalpy of transition or fusion [kcal/mol]	Normal melting temperature [°C]
[1]	7.77 ± 0.287	–
[2]	–	163.5 ± 2.1

[2]
Settings	vapor or sublimation pressure [kPa]
373.15 K	4.1e-09
375.15 K	5.3e-09
377.15 K	6.8e-09
379.15 K	8.8e-09
381.15 K	1.13e-08
383.15 K	1.46e-08
385.15 K	1.87e-08
386.15 K	2.15e-08
387.15 K	2.52e-08
388.15 K	2.87e-08
390.15 K	3.44e-08
391.15 K	3.72e-08
392.15 K	4.46e-08
393.15 K	5.03e-08
394.15 K	5.5e-08
396.15 K	7.28e-08
397.15 K	7.97e-08

O=C(NC1=NCCC2(CCCCC2)S1)c1ccccc1 [N-(1-thia-3-azaspiro[5.5]undec-2-en-2-yl)benzamide]
Settings	Molar enthalpy of transition or fusion [kcal/mol]	Normal melting temperature [°C]
[1]	6.67 ± 0.287	–
[2]	–	130.2 ± 2.1

[2]
Settings	vapor or sublimation pressure [kPa]
353.15 K	2.2e-09
354.15 K	2.3e-09
357.15 K	3.1e-09
360.15 K	3.8e-09
363.15 K	4.8e-09
366.15 K	5.8e-09
368.15 K	6.8e-09
371.15 K	8.9e-09
373.15 K	1.06e-08
375.15 K	1.28e-08
377.15 K	1.4e-08
378.15 K	1.51e-08
380.15 K	1.85e-08
381.15 K	2e-08
383.15 K	2.26e-08
386.15 K	2.87e-08

COc1ccc(NC2=NCCC3(CCCCC3)S2)cc1 [N-(4-methoxyphenyl)-1-thia-3-azaspiro[5.5]undec-2-en-2-amine]
Settings	Molar enthalpy of transition or fusion [kcal/mol]	Normal melting temperature [°C]
[1]	6.52 ± 0.263	–
[2]	–	115.4 ± 2.1

[2]
Settings	vapor or sublimation pressure [kPa]
353.15 K	3.4e-09
355.15 K	4.7e-09
358.15 K	6.5e-09
360.15 K	9.5e-09
362.15 K	1.15e-08
365.15 K	1.64e-08
367.15 K	2.17e-08
369.15 K	2.73e-08
371.15 K	3.63e-08
373.15 K	4.28e-08
375.15 K	5.23e-08
377.15 K	6.63e-08
381.15 K	9.73e-08

From the NIST ThermoML archive (doi:10.1016/j.tca.2013.07.005)
